This experiment has as its system individuals (patients with severe marginal periodontitis, healthy control individuals). Briefly: Skin Prick Test with Lipid A. The class given is in vivo, human. To be noted: for % + with 0.1 mg Lipid A / % + with 1 mg Lipid A: result registered after 18 to 24 hours. Here is the method: Skin Prick Test with Lipid A was performed on three groups of individuals:
Patients with severe marginal periodontitis which responds to treatment.
Healthy control individuals without marginal periodontitis.
(The test was performed according to a routine procedure as described in Aas K, Backman A, Berlin L, Weeke B. Standardization of allergen extracts with appropriate methods. The combined use of skin prick testing and standardization of allergen extracts. Acta Allergol 1978; 33:238-240, and in Malling H-J. The skin prick testing and the use of histamine references. Allergy 1984; 39:596-601).
Patient and disease characteristics for the three groups can be found in Table 1 below. GI (gingival index) was used as measure of active disease. […] The test substance was Lipid A dissolved in water (0.1 mg/ml and 1 mg/ml). Histamine (10 mg/ml in water) and water served as positive and negative controls, respectively. The result was registered after 18 to 24 hours.
Students t-test was employed to test levels of significance for differences between test and control groups.

Setting [1] is: healthy control individuals without marginal periodontitis, n=16.
Where [2] appears, read: patients with severe marginal periodontitis which responds to treatment (GI ≦ 20), n=38.
The mark [3] stands for this setting: refractory patients: severe marginal periodontitis not responding to treatment (GI > 20), n=14.

The text below walks through data of patent US6340455B1, “Testkit and method” (Peridoc AB, priority 1996, dated 2002).

Take `NCCc1c[nH]cn1` [histamine]: the “skin prick reaction (positive/negative)” value (all individuals of the three groups, histamine 10 mg/ml in water, positive control) is “reacted positively”.

Consider Lipid A, for which the “% + with 0.1 mg Lipid A” value is 18.8% under setting [1], 21.1% under setting [2] and 7.1% under setting [3]. In addition, the “% + with 1 mg Lipid A” value is 50.0% under setting [1], 57.9% under setting [2] and 7.1% under setting [3]. Moreover, the “response to Lipid A in skin prick test (in words)” value (refractory patients (severe marginal periodontitis not responding to treatment)) is on record as “almost no positive response”.
